From ChEMBL document CHEMBL4251622, “Design, synthesis, and biological evaluation of polo-like kinase 1/eukaryotic elongation factor 2 kinase (PLK1/EEF2K) dual inhibitors for regulating breast cancer cells apoptosis and autophagy” (Eur J Med Chem, 2018) come the findings set out here.

What is called IC50 is the point on the concentration scale where inhibition reaches its midpoint. A high value points to weaker potency in that assay. As a reminder, the inhibition is the drop in the measured response relative to a control, in per cent.

In one assay the test system is MCF7. In words: Cytotoxicity against human MCF7 cells after 24 hrs by MTT assay. Format: functional, cell-based. Particulars: MCF7, 24 h. (Tetrazolium assays rely on reduction of a dye to a coloured formazan, in cell work by metabolically active cells.)
In assay [1] the target is Serine/threonine-protein kinase PLK1 (Homo sapiens, UniProt P53350). In words: Inhibition of full length human PLK1 at 20 uM using casein as substrate after 40 mins in presence of [gamma-33P]-ATP by radiometric assay relative to control.
Assay [2] deals with T1, Eukaryotic elongation factor 2 kinase (Homo sapiens) (UniProt O00418).
T1 sequence (whole entry): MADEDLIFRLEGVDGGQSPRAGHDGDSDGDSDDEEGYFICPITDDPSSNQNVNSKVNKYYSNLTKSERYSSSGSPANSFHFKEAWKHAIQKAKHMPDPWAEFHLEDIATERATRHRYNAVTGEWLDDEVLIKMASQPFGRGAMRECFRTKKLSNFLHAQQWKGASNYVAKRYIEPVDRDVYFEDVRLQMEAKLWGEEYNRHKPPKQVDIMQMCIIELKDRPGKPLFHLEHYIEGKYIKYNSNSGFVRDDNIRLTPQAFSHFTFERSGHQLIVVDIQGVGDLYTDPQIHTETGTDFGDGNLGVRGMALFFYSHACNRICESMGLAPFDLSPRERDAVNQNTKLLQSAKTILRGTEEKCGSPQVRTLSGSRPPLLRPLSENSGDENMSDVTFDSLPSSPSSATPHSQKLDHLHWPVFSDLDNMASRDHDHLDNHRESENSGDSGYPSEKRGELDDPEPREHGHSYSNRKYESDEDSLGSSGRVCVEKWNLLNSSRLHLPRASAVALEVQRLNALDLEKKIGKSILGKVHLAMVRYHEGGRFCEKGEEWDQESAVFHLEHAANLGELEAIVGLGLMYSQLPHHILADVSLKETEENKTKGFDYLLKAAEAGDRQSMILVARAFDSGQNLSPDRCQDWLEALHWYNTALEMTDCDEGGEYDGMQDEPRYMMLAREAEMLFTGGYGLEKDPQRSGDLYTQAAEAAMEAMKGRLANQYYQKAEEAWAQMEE
Put plainly: Inhibition of GST-tagged EEF2K (unknown origin) at 20 uM using biotinylated EEF2 peptide substrate by HTRF assay relative to control. In general terms: TR-FRET usually uses a lanthanide donor and a delayed reading to cut background.

The next assay has as its system BT-483. In words: Cytotoxicity against human BT-483 cells after 24 hrs by MTT assay. Type of assay: functional, cell-based. Particulars: BT-483, 24 h.
A further assay concerns BT-474. Put plainly: Cytotoxicity against human BT474 cells after 24 hrs by MTT assay. Type of assay: functional, cell-based.
The test system of a further assay is SK-BR-3. In words: Cytotoxicity against human SKBR3 cells after 24 hrs by MTT assay. Type of assay: functional, cell-based.
For a further assay, the system named is ZR-75-1. In words: Cytotoxicity against human ZR-75-1 cells after 24 hrs by MTT assay. Format: functional, cell-based.
Another assay relates to MDA-MB-231. In words: Cytotoxicity against human MDA-MB-231 cells after 24 hrs by MTT assay. Format: functional, cell-based.
A further assay relates to MDA-MB-468. Put plainly: Cytotoxicity against human MDA-MB-468 cells after 24 hrs by MTT assay. Type of assay: functional, cell-based.

The source made the active and inactive calls. The calls are words filed in the database; no cut-off is given here.

Sequence of Serine/threonine-protein kinase PLK1 (P53350 whole entry): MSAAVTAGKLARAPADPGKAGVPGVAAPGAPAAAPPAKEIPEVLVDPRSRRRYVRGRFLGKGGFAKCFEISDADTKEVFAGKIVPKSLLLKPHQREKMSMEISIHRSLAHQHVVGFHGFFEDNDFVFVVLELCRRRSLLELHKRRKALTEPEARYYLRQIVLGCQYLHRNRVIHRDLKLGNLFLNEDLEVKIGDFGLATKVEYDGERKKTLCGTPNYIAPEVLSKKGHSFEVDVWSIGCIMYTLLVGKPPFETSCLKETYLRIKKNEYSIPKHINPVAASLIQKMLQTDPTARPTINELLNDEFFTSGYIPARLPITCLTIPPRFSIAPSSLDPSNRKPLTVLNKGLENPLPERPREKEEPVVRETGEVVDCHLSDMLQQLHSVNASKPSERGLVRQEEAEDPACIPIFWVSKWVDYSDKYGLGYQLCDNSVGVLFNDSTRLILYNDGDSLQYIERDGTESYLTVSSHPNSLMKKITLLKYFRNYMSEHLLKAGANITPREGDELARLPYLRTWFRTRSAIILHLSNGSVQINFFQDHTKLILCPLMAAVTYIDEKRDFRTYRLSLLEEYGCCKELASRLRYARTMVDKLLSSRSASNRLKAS

Regarding `CCNc1cc(-c2ccc(NC(=O)Nc3ccccc3Cl)cc2C(F)(F)F)ccn1`, the results for the IC50 with MCF7 and with BT-483 were 3.68 µM and 20.8 µM, respectively. For the same compound, the inhibition came to 71.6% in [1] and 53.6% in assay [2].

`CCNc1cc(-c2ccc(NC(=O)Nc3ccc(OC)cc3)cc2C(F)(F)F)ccn1`: the IC50 in the assay with MCF7 worked out at 5.74 µM; in the assay with BT-483 it was 17.6 µM. Besides, the inhibition in assay [1] was 62.1%; in assay [2] it was 51.3%.

For the compound `CCNc1cc(-c2ccc(NC(=O)Nc3ccc(C(F)(F)F)cc3)cc2C)ccn1`, the IC50 amounted to 6.87 µM with MCF7 and 19.7 µM in the assay with BT-483. For the same compound, the inhibition was determined as 54.8% in assay [1] and 55.3% in assay [2].

With `CCNc1cc(-c2ccc(NC(=O)Nc3cccc(Cl)c3)cc2F)ccn1`, the IC50 in the assay with MCF7 stood at 6.94 µM; in the assay with BT-483, 18.5 µM. Also, the results for the inhibition in [1] and in assay [2] were 72.7% and 52.5%, respectively.

In the case of `CCNc1cc(-c2ccc(NC(=O)Nc3ccc(C)cc3)cc2C(F)(F)F)ccn1`, the IC50 is 9.47 µM in the assay with MCF7 and 27.1 µM in the assay with BT-483. In addition, the results for the inhibition in assay [1] and in assay [2] were 42.6% and 37.9%, respectively.

In the case of `CCNc1cc(-c2ccc(NC(=O)Nc3ccc(C(F)(F)F)cc3)cc2OC)ccn1`, the IC50 in the assay on MCF7 was found to be 19.5 µM; in the assay on BT-483, 25.6 µM. The inhibition in [1] turned out to be 40.7%; in assay [2], 34.6%.

Consider `CCNc1cc(-c2ccc(NC(=O)Nc3cc(C(F)(F)F)cc(C(F)(F)F)c3)cc2C(F)(F)F)ccn1`, for which the IC50 in the assay on MCF7 is 5.96 µM; with BT-483, above 30 µM. For the same compound, the inhibition in [1] is 66.1%; in assay [2], 37.2%.

With `CCNc1cc(-c2ccc(NC(=O)Nc3c(C)cccc3C)cc2C(F)(F)F)ccn1`, the half-inhibitory concentration (IC50) was determined as 6.95 µM in the assay with MCF7 and 22 µM in the assay on BT-483. Further, the inhibition is 59.2% in assay [1] and 44% in [2].

As for `CCNc1cc(-c2ccc(NC(=O)Nc3ccc(OC)cc3)cc2C)ccn1`, the IC50 in the assay on MCF7 is 9.95 µM; with BT-483, 25.8 µM. In addition, the inhibition came to 45.8% in assay [1] and 33.4% in [2].

Turning to `CCNc1cc(-c2ccc(NC(=O)Nc3ccc(C(F)(F)F)cc3)cc2C(F)(F)F)ccn1`, the IC50 with MCF7 was found to be 2.39 µM; in the assay with BT-483 it was 16.4 µM. In addition, the inhibition in assay [1] came out at 82.9%; in assay [2], 76.3%.

On to `CCNc1cc(-c2ccc(NC(=O)Nc3ccc(C(F)(F)F)cc3)cc2F)ccn1`, for which the IC50 was found to be 8.02 µM in the assay with MCF7 and 26.8 µM in the assay with BT-483. The inhibition in assay [1] was determined as 55.8%; in assay [2] it was 41.2%.

Take `CCNc1cc(-c2ccc(NC(=O)Nc3cccc4ccccc34)cc2C(F)(F)F)ccn1`: the figures for the concentration for half-maximal inhibition (IC50) in the assay on MCF7 and in the assay on BT-483 were 16.3 µM and above 30 µM, respectively. Moreover, the inhibition is 54.1% in assay [1] and -4.29% in assay [2].

On to `CCNc1cc(-c2ccc(NC(=O)Nc3c(C)cccc3C)cc2C)ccn1`, for which the figures for the IC50 in the assay on MCF7 and with BT-483 were 7.92 µM and above 30 µM, respectively. Besides, the inhibition came out at 42.1% in assay [1] and 8.7% in assay [2].

Turning to `CCNc1cc(-c2ccc(NC(=O)Nc3cccc4ccccc34)cc2C)ccn1`, the IC50 is 15.5 µM in the assay with MCF7 and above 30 µM in the assay with BT-483. Besides, the inhibition in assay [1] was determined as 35.3%.

For the compound `O=C(Nc1cccc(Cl)c1)Nc1ccc(-c2ccnc(NCC3CC3)c2)c(C(F)(F)F)c1`, the results for the 50% inhibitory concentration (IC50) with MCF7 and in the assay with BT-483 were 17.4 µM and above 30 µM, respectively. Besides, the inhibition was 63.8% in assay [1] and 27.8% in assay [2].

In the case of `CCNc1cc(-c2ccc(NC(=O)Nc3cccc(Cl)c3)cc2C)ccn1`, the IC50 is 4.18 µM in the assay on MCF7 and 16.6 µM with BT-483. Besides, the inhibition is 82.7% in assay [1] and 73.4% in assay [2].

For `CCCNc1cc(-c2ccc(NC(=O)Nc3ccc(C(F)(F)F)cc3)cc2C(F)(F)F)ccn1`, the results for the IC50 in the assay on MCF7 and with BT-483 were 7.68 µM and 18.8 µM, respectively. For the same compound, the inhibition in assay [1] turned out to be 51.3%; in [2], 33.3%.

As for `CCNc1cc(-c2ccc(NC(=O)Nc3ccc(OC)cc3)cc2F)ccn1`, the figures for the IC50 with MCF7 and in the assay on BT-483 were 14.1 µM and 19.6 µM, respectively. In addition, the values for the inhibition in assay [1] and in [2] were 47.1% and 34.4%, respectively.

Turning to `CC[C@@H]1C(=O)N(C)c2cnc(Nc3ccc(C(=O)NC4CCC(N5CCN(CC6CC6)CC5)CC4)cc3OC)nc2N1C(C)C` (some centres not stated), the outcome with BT-474, in the assay on SK-BR-3, with ZR-75-1, in the assay with MDA-MB-231 and in the assay on MDA-MB-468 was Active.

Consider `CCNc1cc(-c2ccc(NC(=O)Nc3ccc(OC)cc3)cc2OC)ccn1`, for which the IC50 in the assay with MCF7 was 17.5 µM; in the assay with BT-483, above 30 µM. For the same compound, the inhibition in assay [1] was found to be 31.1%; in assay [2] it was 9%.

For the compound `CCNc1cc(-c2ccc(NC(=O)Nc3ccccc3Cl)cc2OC)ccn1`, the IC50 with MCF7 was 9.94 µM; in the assay with BT-483 it was above 30 µM. The inhibition in [1] stood at 53.6%; in [2], 6.4%.

Consider `CCNc1cc(-c2ccc(NC(=O)Nc3cccc(Cl)c3)cc2OC)ccn1`, for which the IC50 in the assay with MCF7 amounted to 7.46 µM; in the assay on BT-483, 25.3 µM. For the same compound, the inhibition in assay [1] amounted to 46.4%; in assay [2], 30.6%.

Regarding `CCNc1cc(-c2ccc(NC(=O)Nc3ccccc3Cl)cc2C)ccn1`, the IC50 with MCF7 was 8.35 µM; in the assay with BT-483 it was above 30 µM. Also, the inhibition in assay [1] amounted to 49.2%; in assay [2], 21.7%.

For the compound `CCNc1cc(-c2ccc(NC(=O)Nc3ccc(C)cc3)cc2C)ccn1`, the IC50 in the assay with MCF7 is 9.21 µM; in the assay with BT-483, 22 µM. Further, the inhibition in assay [1] was determined as 47.5%; in assay [2] it was 35.4%.

With `CCNc1cc(-c2ccc(NC(=O)Nc3c(C)cccc3C)cc2OC)ccn1`, the values for the IC50 with MCF7 and with BT-483 were 9.26 µM and above 30 µM, respectively. Moreover, the inhibition in assay [1] was found to be 54.4%.

As to `CCCNc1cc(-c2ccc(NC(=O)Nc3cccc(Cl)c3)cc2C(F)(F)F)ccn1`, the IC50 in the assay with MCF7 came to 8.23 µM; in the assay with BT-483, 18.5 µM. Moreover, the inhibition in assay [1] is 63%; in [2], 38.2%.

`O=C(Nc1ccc(C(F)(F)F)cc1)Nc1ccc(-c2ccnc(NCC3CC3)c2)c(C(F)(F)F)c1`: the results for the IC50 with MCF7 and with BT-483 were 15.6 µM and above 30 µM, respectively. Also, the inhibition in assay [1] was found to be 53.4%; in assay [2], 15.1%.
